The results in this text go back to paper PMC7679387, “VZHE-039, a novel antisickling agent that prevents erythrocyte sickling under both hypoxic and anoxic conditions” (Scientific Reports, 2020).

“Also recorded” adds a separate entry of the source.

For data set [1], the target named is T1, HbA (Homo sapiens, UniProt P69905).
T1 construct: fresh normal adult whole blood (Hct of 30%); from tissue; host or cells: normal adult whole blood (red blood cells)
The experiment in a line: In vitro time-dependent Hb oxygen equilibrium study using normal whole blood (tonometry). The format is cell-based. To be noted: 2 mM, Hct 30%, 37 °C, 1-24 h. The source says: The antisickling activity of aromatic aldehydes is dependent on Schiff-base interaction between the aldehyde moiety and the Hb αVal1 amines (Schiff-base adduct) and the increase in the protein affinity for oxygen[30]–[40]. […] To overcome this pharmacologic limitation, Tucaresol and Voxelotor, two potent antisickling agents utilized a ortho-hydroxyl moiety (relative to the aldehyde group) on the benzaldehyde ring to form intramolecular hydrogen-bond interaction with the aldehyde group to form hemiacetal-like moiety, which led to significant reduction in oxidative metabolism of the aldehyde[28],[50]. […] VZHE-039, however, incorporates this ortho-hydroxyl moiety on the benzene ring, which is expected to increase its oxidative metabolic stability. This was tested by incubating 2 mM of VZHE-039 (with vanillin and TD-7 as controls) with fresh normal adult whole blood (Hct of 30%) at 37 °C as a surrogate measure of oxidative metabolism. At defined time points (1, 4, 8, 12 and 24 h), aliquot samples were drawn, and subsequently analyzed for their P50-shifts relative to the initial P50 value, using three-point tonometry. In parallel, an untreated control sample was also assessed to control for any time-dependent, but drug-independent changes in P50 values. […] These findings confirm the importance of the ortho-hydroxyl group in aromatic aldehydes in preventing or reducing enzymatic metabolism of aldehyde in RBCs.
Normal whole blood samples (hematocrit 30%) in the absence (control) or presence of 2 mM concentration VZHE-039 (solubilized in DMSO) were incubated at 37 °C for 24 h with shaking (at 140 rpm). At 1, 4, 8, 12 and 24 h time intervals, aliquots of this mixture were removed and then subjected to OEC analysis using tonometry as previously described. Vanillin and TD-7 were used as positive controls, while DMSO was tested as negative control. Briefly, the compound-treated blood samples were incubated in IL 237 tonometers (Instrumentation Laboratories, Inc. Lexington, MA) for approximately 10 min at 37 °C, and allowed to equilibrate at oxygen tensions 6, 20, and 40 mmHg. The samples were then aspirated into an ABL 700 Automated Blood Gas Analyzer (Radiometer) to determine the pH, partial pressure of CO2 (pCO2), partial pressure of oxygen (pO2), and Hb oxygen saturation values (SO2). The measured values of pO2 (mmHg) and SO2 at each pO2 value were then subjected to a non-linear regression analysis using the program Scientist (Micromath, Salt Lake City, UT) to estimate P50 as previously reported.

Data set [2] has as its system SS RBCs. Description: pO2-dependent degree of sickling in Hemox Analyzer. To be noted: Hct 20%. The format is cell-based, human. On the procedure: In a confirmatory study, a pO2 dependent degree of sickling of VZHE-039 at 1 and 2 mM doses, with Voxelotor as a control was performed using a Hemox analyzer. […] Oksenberg et al.reported similar observations with Voxelotor[28], where the compound lost its potent antisickling activity at low pO2 values.
The second study established pO2 dependent degree of sickling of VZHE-039, with Voxelotor as a control. Concurrently, blood samples, hematocrit 20%, were incubated without any drug (control) or with 1, or 2 mM VZHE-039 at 37 °C for 1 h. A second control sample was incubated with 2 mM Voxelotor. At conclusion, 100 uL aliquots of each suspension were mixed with 2.5 mL Hemox buffer (pH 7.4, supplemented with antifoam), and transferred into the sample chamber of the Hemox Analyzer. Compressed air was then flushed through the sample to ensure complete oxygenation (at 150 mmHg). Nitrogen gas was then introduced into the sample chamber, and 50 uL aliquots were obtained and fixed at defined pO2 values. At conclusion, all fixed samples were subjected to microscopic analysis for their degree of sickling, and results were plotted using Prism Graph Pad software. The experiments were conducted in three replicates on different days, and mean and standard deviation values are reported.

Data set [3] is described as follows: Caco-2 bi-directional permeability. It counts as in vitro ADME, human. The note with it: human, Caco-2, pH 7.4; read-out: Efflux ratio (Re). As to the method:
(§1) Toxicity concerns remain an important issue in the use of aromatic aldehydes in treating a chronic disease, such as SCD, especially as it involves modification of a large amount of in vivo present Hb. […] We evaluated key metrics such as in vitro RBC partitioning and ADME/safety profiles, in order to glean important safety insights. […] We also assessed VZHE-039 at 10 μM for its bi-directional cell permeability using Caco-2 cell monolayers[53],[54].
(§2) Human epithelial colorectal adenocarcinoma (Caco-2) cells (HTB-37) were cultured in T75 flasks using complete Dulbecco’s Modified Eagles Medium (DMEM) containing 10% fetal bovine serum (FBS), 1% glutamine, 1% penicillin and 1% streptomycin, at 37 °C in a 5% CO2 atmosphere. Cells were passaged at 80–90% confluency using 0.05% trypsin–EDTA and the medium was changed every other day. Following this, the cells were trypsinized, suspended in medium and applied to a Millipore 96-well plate where they were cultured as monolayers at a density of 25,000 cells/well. The cells were incubated in a 37 °C/5% CO2 incubator to allow cell attachment and proliferation. Media was changed every 2–3 days for 21 days when cells reached 100% confluency. For Apical → Basolateral (A → B) permeability, 10 μM VZHE-039 was added to the apical (A) side and the amount of permeation determined on the basolateral (B) side; for Basolateral → Apical (B → A) permeability, 10 μM VZHE-039 was added to the B-side and the amount of permeation was determined on the A side. The A-side buffer contained 100 μM lucifer yellow dye, in Transport Buffer (1.98 g/L glucose in 10 mM HEPES, 1 × Hank’s Balanced Salt Solution) pH 7.4, and the B-side buffer used was the Transport Buffer at pH 7.4. Caco-2 cells were incubated with 10 μM VZHE0-39 in these buffers for 2 h. Ranitidine (low permeability), Warfarin (high permeability) and Talinolol (P-gp efflux control) were used as controls. […] Following centrifugation, the supernatant for donor and receiver side samples was analyzed by LC–MS/MS to determine peak area ratios.
(§3) The efflux ratio (Re) was calculated as: Re=PappB→A/PappA→B

Data set [4] has as its system Caco-2 cell monolayers. Description: Caco-2 bi-directional permeability. To be noted: Caco-2 monolayers. The format is in vitro ADME, human. As to the method: as §1, §2, §3
(In general: Passage across Caco-2 layers is used to estimate intestinal permeability.)

T1 sequence (P69905 2-142 limits assumed): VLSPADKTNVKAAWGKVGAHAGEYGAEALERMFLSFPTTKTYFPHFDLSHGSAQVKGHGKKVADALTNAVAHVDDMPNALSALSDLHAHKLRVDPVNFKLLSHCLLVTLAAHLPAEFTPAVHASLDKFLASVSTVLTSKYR
T1 sequence (P68871 2-147 partner limits assumed): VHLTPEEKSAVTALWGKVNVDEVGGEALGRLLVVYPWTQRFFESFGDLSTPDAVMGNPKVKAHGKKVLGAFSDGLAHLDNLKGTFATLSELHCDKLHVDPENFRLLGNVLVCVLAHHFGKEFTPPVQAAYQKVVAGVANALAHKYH

As to `O=Cc1c(O)cccc1OCc1cccc(CO)n1` [VZHE-039, 2-((6-(Hydroxymethyl)pyridin-2-yl)methoxy)-6-hydroxybenzaldehyde], in data set [1], the “Time course of P50-shift (in words)” value is listed as “sustained P50-shift throughout the entire 24-h experimental period”. The “pO2-dependent sickling inhibition (in words)” value is given as “delay in initiation of sickling, as well as reduction in the total number of sickled cells; also recorded: significant delay in initiation of sickling” in data set [2] (1 mM) and “complete inhibition of sickling at the lowest recorded pO2; also recorded: complete sickling inhibition at all pO2” in data set [2] (2 mM). In addition, in data set [3], the efflux ratio at 2 h, 10 µM is 0.85. Also, the “Permeability (in words)” value in data set [4] (10 μM) is reported as “high in vitro GI permeability”. Besides, in data set [4], the “Efflux transporter (P-gp) substrate (in words)” value is reported as “not an efflux transporter (P-gp) substrate”.
